Experimental data published in the NIST ThermoML archive (doi:10.1021/je2009413).

Legend:
[1] = osmotic coefficient (dimensionless); mn = molality of the nth substance listed, in mol/kg; details: 298.15 K, Liquid, isopiestic method
[2] = mean ionic activity coefficient (dimensionless); mn = molality of the nth substance listed, in mol/kg; details: 298.15 K, Liquid, Isopiestic method

CCC(C)[N+](CC)(CC)CC.[I-] (stereo not given) [N,N,N-triethyl-2-butanaminium iodide] + O
Details	mean ionic activity coefficient, [2]	osmotic coefficient, [1]
m1 = 0.0355	0.7342	0.868
m1 = 0.0419	0.7111	0.857
m1 = 0.0466	0.6955	0.849
m1 = 0.0596	0.6571	0.833
m1 = 0.0659	0.6405	0.827
m1 = 0.0701	0.6301	0.82
m1 = 0.078	0.6116	0.814
m1 = 0.0914	0.5833	0.801
m1 = 0.0985	0.5696	0.794
m1 = 0.1038	0.5599	0.79
m1 = 0.1115	0.5465	0.784
m1 = 0.1743	0.4605	0.728
m1 = 0.1756	0.459	0.728
m1 = 0.2078	0.4262	0.704
m1 = 0.2438	0.3955	0.676
m1 = 0.248	0.3922	0.673
m1 = 0.2939	0.3602	0.651
m1 = 0.338	0.3347	0.621
m1 = 0.3717	0.3178	0.616
m1 = 0.3901	0.3094	0.602
m1 = 0.431	0.2924	0.578
m1 = 0.4744	0.2766	0.57
m1 = 0.5204	0.2619	0.554
m1 = 0.5785	0.2458	0.538
m1 = 0.624	0.2347	0.525
m1 = 0.665	0.2257	0.52
m1 = 0.6928	0.22	0.508
m1 = 0.8	0.2011	0.49
m1 = 0.847	0.194	0.486
m1 = 0.9185	0.1842	0.48
m1 = 0.978	0.177	0.468
m1 = 1.091	0.1651	0.456
m1 = 1.19	0.1562	0.445
m1 = 1.306	0.1471	0.433
m1 = 1.407	0.1402	0.427
m1 = 1.545	0.132	0.413
m1 = 1.715	0.1234	0.411
m1 = 1.891	0.1159	0.407
m1 = 1.928	0.1144	0.412
m1 = 1.988	0.1122	0.407
m1 = 2.019	0.111	0.408
m1 = 2.09	0.1086	0.417
m1 = 2.172	0.1059	0.413
m1 = 2.413	0.0987	0.43

CC[N+](CC)(CC)CC(C)C.[I-] [N,N,N-triethyl-2-methyl-1-propanaminium iodide] + O
Details	mean ionic activity coefficient, [2]	osmotic coefficient, [1]
m1 = 0.0366	0.7118	0.841
m1 = 0.0433	0.6866	0.828
m1 = 0.0483	0.6687	0.819
m1 = 0.0624	0.6257	0.795
m1 = 0.0695	0.6067	0.784
m1 = 0.0739	0.5963	0.778
m1 = 0.0824	0.5764	0.769
m1 = 0.0975	0.5439	0.751
m1 = 0.1055	0.5296	0.741
m1 = 0.1113	0.5191	0.736
m1 = 0.12	0.5042	0.729
m1 = 0.1872	0.4149	0.678
m1 = 0.1889	0.4131	0.677
m1 = 0.2234	0.3799	0.655
m1 = 0.2618	0.3493	0.63
m1 = 0.265	0.347	0.63
m1 = 0.3183	0.3131	0.601
m1 = 0.3626	0.2901	0.579
m1 = 0.4063	0.2708	0.563
m1 = 0.4229	0.2643	0.555
m1 = 0.4602	0.2508	0.541
m1 = 0.5128	0.2343	0.527
m1 = 0.5607	0.2214	0.514
m1 = 0.6289	0.2056	0.495
m1 = 0.6797	0.1956	0.482
m1 = 0.737	0.1857	0.469
m1 = 0.749	0.1837	0.47
m1 = 0.8695	0.1669	0.451
m1 = 0.9418	0.1587	0.437
m1 = 1.034	0.1496	0.426
m1 = 1.1	0.144	0.416
m1 = 1.232	0.1343	0.404
m1 = 1.352	0.1271	0.392
m1 = 1.465	0.1213	0.386
m1 = 1.595	0.1156	0.377
m1 = 1.703	0.1115	0.375
m1 = 1.891	0.1055	0.373
m1 = 2.044	0.1013	0.377
m1 = 2.096	0.0994	0.379
m1 = 2.142	0.0984	0.378
m1 = 2.163	0.0981	0.381
m1 = 2.254	0.0955	0.387
m1 = 2.308	0.0941	0.389
m1 = 2.528	0.0917	0.41

CC[N+](CC)(CC)C(C)(C)C [N,N,N-triethyl-2-methyl-2-propanaminium] + O
Details	mean ionic activity coefficient, [2]	osmotic coefficient, [1]
m1 = 0.0342	0.7642	0.899
m1 = 0.0403	0.7444	0.891
m1 = 0.0449	0.7306	0.88
m1 = 0.0576	0.6966	0.862
m1 = 0.0639	0.6816	0.853
m1 = 0.0679	0.6725	0.847
m1 = 0.0754	0.6564	0.841
m1 = 0.088	0.6318	0.832
m1 = 0.0953	0.6187	0.82
m1 = 0.0994	0.6116	0.824
m1 = 0.1082	0.5972	0.808
m1 = 0.1645	0.5222	0.771
m1 = 0.1658	0.5208	0.771
m1 = 0.195	0.4905	0.75
m1 = 0.2257	0.4629	0.731
m1 = 0.2308	0.4586	0.723
m1 = 0.271	0.4282	0.706
m1 = 0.3095	0.4031	0.678
m1 = 0.3407	0.3851	0.671
m1 = 0.3517	0.3792	0.668
m1 = 0.383	0.3635	0.651
m1 = 0.4265	0.3439	0.634
m1 = 0.4648	0.3286	0.62
m1 = 0.5151	0.3106	0.604
m1 = 0.553	0.2985	0.592
m1 = 0.5917	0.2871	0.584
m1 = 0.61	0.2821	0.577
m1 = 0.7078	0.2583	0.554
m1 = 0.7607	0.2473	0.541
m1 = 0.8399	0.2327	0.524
m1 = 0.8805	0.2259	0.52
m1 = 0.9759	0.2118	0.509
m1 = 1.08	0.1986	0.49
m1 = 1.162	0.1896	0.487
m1 = 1.272	0.1791	0.473
m1 = 1.391	0.1693	0.459
m1 = 1.56	0.1579	0.452
m1 = 1.693	0.1504	0.455
m1 = 1.771	0.1466	0.449
m1 = 1.786	0.1459	0.454
m1 = 1.83	0.144	0.45
m1 = 1.924	0.1401	0.453
m1 = 1.99	0.1377	0.451
m1 = 2.231	0.1303	0.465

CCCC[N+](CC)(CCCC)CCCC.[I-] [N,N-dibutyl-N-ethyl-1-butanaminium iodide] + O
Details	mean ionic activity coefficient, [2]	osmotic coefficient, [1]
m1 = 0.0378	0.6891	0.814
m1 = 0.0449	0.6605	0.799
m1 = 0.0501	0.6414	0.789
m1 = 0.0653	0.5922	0.761
m1 = 0.0727	0.5712	0.749
m1 = 0.0776	0.5582	0.741
m1 = 0.0868	0.5355	0.731
m1 = 0.1035	0.499	0.707
m1 = 0.1121	0.4824	0.698
m1 = 0.1191	0.4695	0.688
m1 = 0.1288	0.4528	0.679
m1 = 0.2082	0.3515	0.614
m1 = 0.2083	0.3515	0.609
m1 = 0.2503	0.3142	0.584
m1 = 0.292	0.2842	0.565
m1 = 0.3027	0.2774	0.551
m1 = 0.3652	0.2431	0.524
m1 = 0.4254	0.217	0.493
m1 = 0.4783	0.1981	0.478
m1 = 0.498	0.1919	0.471
m1 = 0.547	0.1778	0.456
m1 = 0.6197	0.1601	0.436
m1 = 0.6878	0.1461	0.419
m1 = 0.7684	0.1322	0.405
m1 = 0.8453	0.1209	0.388
m1 = 0.908	0.1127	0.381
m1 = 0.9478	0.108	0.371
m1 = 1.128	0.09	0.347
m1 = 1.231	0.0816	0.335
m1 = 1.337	0.0739	0.33
m1 = 1.405	0.0695	0.326
m1 = 1.548	0.0611	0.321
m1 = 1.652	0.0557	0.321
m1 = 1.751	0.051	0.323
m1 = 1.825	0.0478	0.33
m1 = 1.91	0.0443	0.334
m1 = 2.042	0.0393	0.345
m1 = 2.173	0.0349	0.354
m1 = 2.216	0.0335	0.359
m1 = 2.239	0.0328	0.362
m1 = 2.276	0.0317	0.362
m1 = 2.339	0.0299	0.372
m1 = 2.38	0.0288	0.377
m1 = 2.583	0.0236	0.402

CCCC[N+](CC)(CC)CCCC.[I-] [N-butyl-N,N-diethylbutan-1-aminium iodide] + O
Details	mean ionic activity coefficient, [2]	osmotic coefficient, [1]
m1 = 0.0372	0.7064	0.828
m1 = 0.0441	0.6798	0.813
m1 = 0.0491	0.6621	0.805
m1 = 0.0634	0.6174	0.782
m1 = 0.0706	0.5976	0.772
m1 = 0.0749	0.5865	0.768
m1 = 0.0839	0.5647	0.756
m1 = 0.0992	0.5317	0.738
m1 = 0.1069	0.5166	0.731
m1 = 0.1133	0.5048	0.723
m1 = 0.1221	0.4896	0.716
m1 = 0.1938	0.3939	0.654
m1 = 0.1969	0.3912	0.649
m1 = 0.2338	0.3566	0.625
m1 = 0.2705	0.3248	0.61
m1 = 0.2758	0.3213	0.605
m1 = 0.3292	0.2868	0.581
m1 = 0.3751	0.2634	0.559
m1 = 0.4189	0.2415	0.546
m1 = 0.4343	0.2351	0.541
m1 = 0.4687	0.2213	0.532
m1 = 0.5317	0.2037	0.508
m1 = 0.58	0.1904	0.497
m1 = 0.6463	0.1748	0.481
m1 = 0.7082	0.166	0.463
m1 = 0.758	0.1556	0.456
m1 = 0.7808	0.1521	0.451
m1 = 0.9199	0.1348	0.426
m1 = 0.9899	0.1266	0.416
m1 = 1.1	0.1171	0.401
m1 = 1.178	0.1131	0.389
m1 = 1.324	0.1042	0.375
m1 = 1.426	0.0988	0.371
m1 = 1.548	0.0944	0.366
m1 = 1.66	0.0909	0.362
m1 = 1.76	0.0885	0.363
m1 = 1.926	0.0852	0.366
m1 = 2.042	0.0821	0.377
m1 = 2.078	0.0809	0.383
m1 = 2.108	0.0807	0.384
m1 = 2.136	0.0802	0.386
m1 = 2.179	0.0789	0.4
m1 = 2.218	0.0782	0.405
m1 = 2.389	0.0748	0.434
